Measurements reported in ChEMBL document CHEMBL1201862, “PubChem BioAssay data set” (2004).
The source made the active and inactive calls.

Legend:
Hexokinase = Hexokinase (Trypanosoma brucei, UniProt Q38C41); test: Confirmation assay for inhibitors of Trypanosoma brucei hexokinase 1-Analogue-first series. [Related pubchem assays (depositor defined):AID1430, AID1632, AID2516, AID2560, AID2579, AID2600, AID449725, AID492951]; format: functional
Cytochrome P450 2C19 = Cytochrome P450 2C19 (Homo sapiens, UniProt P33261); test: Cytochrome panel assay with activity outcomes. Panel member name: p450-cyp2c19 Compounds with AC50 equal or less than 10 uM are considered active; format: functional; conditions: read-out: AC50
Cytochrome P450 2D6 = Cytochrome P450 2D6 (Homo sapiens, UniProt P10635);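 note: CYP2D6 member of a cytochrome P450 panel assay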
[1] = target: T1, Short transient receptor potential channel 4 (Mus musculus, UniProt Q9QUQ5); test: block of DAMGO-driven TRPC4 calcium entry – cell-based, HEK293 TRPC4/mu-opioid, Fluo-4 calcium, dose response (AID 434942); format: functional;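 note: potency of inhibitors blocking the TRPC4 calcium response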
T1 sequence (Q9QUQ5 whole entry): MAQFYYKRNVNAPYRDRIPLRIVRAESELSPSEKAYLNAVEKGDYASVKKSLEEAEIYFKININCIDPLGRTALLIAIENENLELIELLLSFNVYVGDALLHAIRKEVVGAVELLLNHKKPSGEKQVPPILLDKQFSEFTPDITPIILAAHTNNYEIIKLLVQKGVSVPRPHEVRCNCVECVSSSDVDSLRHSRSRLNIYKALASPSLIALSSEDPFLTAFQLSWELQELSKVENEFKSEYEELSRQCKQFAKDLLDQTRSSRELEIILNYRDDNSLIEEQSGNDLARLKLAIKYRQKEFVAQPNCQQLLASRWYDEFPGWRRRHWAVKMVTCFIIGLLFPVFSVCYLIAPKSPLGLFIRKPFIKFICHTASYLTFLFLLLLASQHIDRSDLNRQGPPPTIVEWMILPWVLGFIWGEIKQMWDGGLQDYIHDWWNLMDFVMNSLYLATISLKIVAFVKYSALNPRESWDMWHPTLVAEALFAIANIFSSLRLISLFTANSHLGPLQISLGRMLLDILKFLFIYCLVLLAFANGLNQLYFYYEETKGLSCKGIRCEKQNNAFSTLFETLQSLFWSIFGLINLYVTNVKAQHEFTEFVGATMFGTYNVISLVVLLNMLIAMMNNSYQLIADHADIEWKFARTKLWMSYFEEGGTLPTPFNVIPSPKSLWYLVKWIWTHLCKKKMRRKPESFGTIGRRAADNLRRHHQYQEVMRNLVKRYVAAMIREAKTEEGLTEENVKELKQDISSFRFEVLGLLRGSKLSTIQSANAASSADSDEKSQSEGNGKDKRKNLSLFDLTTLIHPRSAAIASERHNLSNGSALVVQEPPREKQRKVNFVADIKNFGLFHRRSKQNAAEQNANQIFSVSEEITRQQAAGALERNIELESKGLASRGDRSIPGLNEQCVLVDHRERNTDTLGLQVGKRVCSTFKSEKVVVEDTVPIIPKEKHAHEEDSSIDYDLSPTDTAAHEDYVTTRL

Phosphomannomutase 2 = Phosphomannomutase 2 (Homo sapiens, UniProt O15305); test: Counter screen SAR assay for PMM2 inhibitors via a fluorescence intensity assay. [Related pubchem assays (depositor defined):AID1545, AID1574]
[2] = target: T2, Mannose-6-phosphate isomerase (Homo sapiens, UniProt P34949); test: phosphomannose isomerase inhibition – biochemical, fluorescence intensity, confirmation (AID 1535)
T2 sequence (P34949 whole entry): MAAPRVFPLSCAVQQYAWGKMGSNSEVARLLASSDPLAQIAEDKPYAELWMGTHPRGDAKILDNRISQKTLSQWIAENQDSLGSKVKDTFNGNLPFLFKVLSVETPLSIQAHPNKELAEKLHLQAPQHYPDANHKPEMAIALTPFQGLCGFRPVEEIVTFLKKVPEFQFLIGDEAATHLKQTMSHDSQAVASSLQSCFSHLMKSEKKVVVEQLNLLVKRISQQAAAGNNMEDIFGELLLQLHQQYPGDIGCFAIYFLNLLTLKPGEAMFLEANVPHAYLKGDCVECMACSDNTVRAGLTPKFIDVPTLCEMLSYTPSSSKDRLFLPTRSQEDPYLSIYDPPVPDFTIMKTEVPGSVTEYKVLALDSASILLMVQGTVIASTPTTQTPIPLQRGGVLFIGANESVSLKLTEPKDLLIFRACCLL

[3] = target: Phosphoethanolamine/phosphocholine phosphatase (Homo sapiens, UniProt Q8TCT1); test: SAR assay for compounds that inhibit PHOSPHO1. [Related pubchem assays (depositor defined):AID1545, AID1565, AID1574]
[4] = decrease of insulin promoter-GFP reporter – imaging, high-content screening, mouse beta cells (AID 1628); format: functional; conditions: MIN6
[5] = MIN6 cell viability loss – mouse insulinoma, cytotoxicity control, dose response (AID 2122); format: functional;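 note: confirmatory high-throughput counterscreen run to flag cytotoxic compounds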
Nonstructural protein 1 = Nonstructural protein 1 (Influenza A virus, UniProt Q194T2); format: functional, Influenza A virus (A/California/07/2009(H1N1))
Exodeoxyribonuclease V = Exodeoxyribonuclease V (Escherichia coli (strain K12), UniProt P04993+P07648+P08394); test: RecBCD inhibition via phage-restricted bacterial growth – absorbance, V66 E. coli, mutant T4 phage, counter-screen for AddAB inhibitor project, dose response (AID 492957); format: functional, cell-based, Escherichia coli str. K-12 substr. MG1655
[6] = HGIII-sPLA2 enzyme inhibition potency – biochemical, QFRET, IC50, dose response (AID 743457);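 note: green fluorescence rise as the enzyme cleaves BODIPY PC-A2 in liposomes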
[7] = Counterscreen for AddAB inhibitors: absorbance-based bacterial cell-based high throughput dose response assay for inhibitors of bacterial viability. [Related pubchem assays (depositor defined):AID435030, AID449728, AID449731, AID488942, AID488955, AID488956]; format: functional
Insulin-degrading enzyme [8] = target: T3, Insulin-degrading enzyme (Homo sapiens, UniProt P14735); test: cellular IDE activation of Abeta substrate cleavage – fluorescence polarization, HEK cells, dose response (AID 588439); format: functional, cell-based
T3 sequence (P14735 whole entry): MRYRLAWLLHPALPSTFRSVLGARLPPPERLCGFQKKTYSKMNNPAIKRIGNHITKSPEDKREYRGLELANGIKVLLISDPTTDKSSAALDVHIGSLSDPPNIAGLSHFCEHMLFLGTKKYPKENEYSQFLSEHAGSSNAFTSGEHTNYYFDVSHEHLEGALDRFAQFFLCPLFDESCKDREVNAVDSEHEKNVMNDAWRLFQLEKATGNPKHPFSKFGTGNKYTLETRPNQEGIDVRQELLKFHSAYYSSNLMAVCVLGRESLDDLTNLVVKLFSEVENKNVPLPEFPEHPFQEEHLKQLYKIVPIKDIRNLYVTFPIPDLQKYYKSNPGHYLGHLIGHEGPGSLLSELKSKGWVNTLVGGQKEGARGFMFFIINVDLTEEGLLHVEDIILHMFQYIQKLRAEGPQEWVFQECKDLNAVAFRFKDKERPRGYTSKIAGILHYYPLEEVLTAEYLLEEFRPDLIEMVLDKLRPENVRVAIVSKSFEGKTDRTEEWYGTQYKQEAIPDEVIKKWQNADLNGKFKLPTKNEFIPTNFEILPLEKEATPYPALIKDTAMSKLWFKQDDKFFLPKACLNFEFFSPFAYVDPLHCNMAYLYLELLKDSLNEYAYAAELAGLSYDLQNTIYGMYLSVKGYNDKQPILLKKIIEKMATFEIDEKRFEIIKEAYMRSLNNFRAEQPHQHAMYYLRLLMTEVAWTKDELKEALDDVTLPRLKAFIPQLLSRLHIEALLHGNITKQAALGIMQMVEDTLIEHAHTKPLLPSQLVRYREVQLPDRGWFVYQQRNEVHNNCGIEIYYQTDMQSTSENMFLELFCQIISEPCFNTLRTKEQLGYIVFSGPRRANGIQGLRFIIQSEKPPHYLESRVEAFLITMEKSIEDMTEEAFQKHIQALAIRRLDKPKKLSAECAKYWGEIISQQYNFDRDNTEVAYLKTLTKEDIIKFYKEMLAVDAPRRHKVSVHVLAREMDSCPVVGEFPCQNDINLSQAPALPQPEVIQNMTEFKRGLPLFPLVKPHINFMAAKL

Insulin-degrading enzyme [9] = target: T3, Insulin-degrading enzyme; test: recombinant IDE activation, cell-free – biochemical, fluorescence polarization, counter-screen for IDE activator project, dose response (AID 588681)
Beta-lactamase [10] = target: Beta-lactamase (Pseudomonas aeruginosa, UniProt Q79MP6);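 note: biochemical dose-response test of metallo-beta-lactamase enzyme inhibition, read out by epi-absorbance; purified recombinant IMP-1 metallo-beta-lactamase with nitrocefin as substrate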
HEK293 [11] = test: optical interference in Abeta FP readout, dose response, artefact control for IDE activator project, biochemical, fluorescence polarization (AID 588442); format: functional, cell-based; conditions: Homo sapiens
HeLa = test: viability loss in HeLa cells – cell-based, 24 h, cherry-picked samples, cytotoxicity control, dose response (AID 504726); format: functional; conditions: Homo sapiens;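 note: potency for cytotoxicity as loss of luminescence signal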
ORF 73 = ORF 73 (Human herpesvirus 8, UniProt O40947); test: KSHV LANA DNA-binding disruption – biochemical, fluorescence polarization, cherry-picked samples, dose response (AID 504725); parameters: species or system Human gammaherpesvirus 8;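 note: fluorescence polarization of a labeled DNA duplex reporting LANA DNA binding; potency is for inhibitors that block LANA binding to the DNA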
Beta-lactamase [12] = target: Beta-lactamase (Salmonella choleraesuis (strain SC-B67), UniProt Q5J463)
HEK293 [13] = test: membrane integrity loss in HEK cells – cell-based, fluorescence, cytotoxicity control for IDE activator project, dose response (AID 588440); format: functional; conditions: Homo sapiens;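 note: cytotoxicity by LDH release measuring loss of membrane integrity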
[14] = target: Dual specificity tyrosine-phosphorylation-regulated kinase 1A (Rattus norvegicus, UniProt Q63470); format: biochemical, Homo sapiens
[15] = target: G-protein coupled receptor 35 (Homo sapiens, UniProt Q9HC97); test: inhibition of zaprinast-stimulated GPR35 beta-arrestin translocation – imaging, U2OS, beta-arrestin-GFP, zaprinast agonist, primary screen (AID 2058); format: functional;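 note: antagonist potency meaning inhibition of agonist-induced arrestin redistribution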
[16] = target: T4, Corticotropin-releasing factor receptor 2/Corticotropin-releasing factor-binding protein (Homo sapiens, UniProt P24387+Q13324); test: activators of CRF receptor 2 with binding protein – uHTS hits, confirmation (AID 602473); format: functional; conditions: read-out: EC50_Mean
T4 sequence (Q13324 whole entry): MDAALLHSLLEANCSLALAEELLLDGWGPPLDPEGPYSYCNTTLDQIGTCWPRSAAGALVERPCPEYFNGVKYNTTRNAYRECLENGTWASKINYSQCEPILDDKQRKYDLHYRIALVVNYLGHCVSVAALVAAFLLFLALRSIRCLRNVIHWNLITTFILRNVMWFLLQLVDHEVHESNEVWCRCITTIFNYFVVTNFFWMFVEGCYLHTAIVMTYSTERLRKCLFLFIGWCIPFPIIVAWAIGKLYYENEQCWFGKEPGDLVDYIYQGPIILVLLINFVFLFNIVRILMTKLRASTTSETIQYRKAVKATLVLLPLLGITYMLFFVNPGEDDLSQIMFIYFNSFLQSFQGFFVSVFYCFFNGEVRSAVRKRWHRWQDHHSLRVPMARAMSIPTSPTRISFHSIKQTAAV
T4 sequence (P24387 whole entry): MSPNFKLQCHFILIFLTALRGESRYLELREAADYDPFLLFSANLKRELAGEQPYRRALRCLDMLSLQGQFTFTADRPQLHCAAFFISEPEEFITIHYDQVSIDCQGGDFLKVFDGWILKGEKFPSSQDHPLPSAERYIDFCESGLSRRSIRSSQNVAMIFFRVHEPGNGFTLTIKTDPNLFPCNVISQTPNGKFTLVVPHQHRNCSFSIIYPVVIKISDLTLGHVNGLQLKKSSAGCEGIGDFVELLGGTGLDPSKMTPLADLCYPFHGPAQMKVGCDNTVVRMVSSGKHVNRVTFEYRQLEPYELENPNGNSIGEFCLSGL

[17] = target: T1, Short transient receptor potential channel 4; test: calcium entry via TRPC4 opening agents – cell-based, HEK293 TRPC4/mu-opioid, Fluo-4 calcium, dose response (AID 434937); format: functional

Hexokinase, sequence (Q38C41 whole entry): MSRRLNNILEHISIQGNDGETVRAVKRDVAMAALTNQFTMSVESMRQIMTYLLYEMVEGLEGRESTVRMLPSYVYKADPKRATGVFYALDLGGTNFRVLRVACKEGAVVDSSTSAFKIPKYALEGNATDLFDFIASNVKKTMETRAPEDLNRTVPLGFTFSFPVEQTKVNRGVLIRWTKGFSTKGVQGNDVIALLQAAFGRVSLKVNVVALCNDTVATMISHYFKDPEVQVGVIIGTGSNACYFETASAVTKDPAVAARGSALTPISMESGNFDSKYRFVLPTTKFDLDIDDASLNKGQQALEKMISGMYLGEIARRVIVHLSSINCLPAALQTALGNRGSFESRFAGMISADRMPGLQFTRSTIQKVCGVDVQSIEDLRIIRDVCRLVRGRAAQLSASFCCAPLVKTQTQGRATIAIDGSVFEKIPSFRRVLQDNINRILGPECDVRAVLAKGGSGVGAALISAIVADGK
Phosphoethanolamine/phosphocholine phosphatase, sequence (Q8TCT1 whole entry): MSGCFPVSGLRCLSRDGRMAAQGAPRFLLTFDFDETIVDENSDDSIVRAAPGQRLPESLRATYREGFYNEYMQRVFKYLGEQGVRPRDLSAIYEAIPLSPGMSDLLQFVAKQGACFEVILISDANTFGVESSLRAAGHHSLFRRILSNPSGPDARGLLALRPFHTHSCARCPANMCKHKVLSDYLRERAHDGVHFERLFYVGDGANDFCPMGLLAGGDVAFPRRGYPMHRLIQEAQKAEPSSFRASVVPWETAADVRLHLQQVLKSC
Phosphomannomutase 2, sequence (O15305 whole entry): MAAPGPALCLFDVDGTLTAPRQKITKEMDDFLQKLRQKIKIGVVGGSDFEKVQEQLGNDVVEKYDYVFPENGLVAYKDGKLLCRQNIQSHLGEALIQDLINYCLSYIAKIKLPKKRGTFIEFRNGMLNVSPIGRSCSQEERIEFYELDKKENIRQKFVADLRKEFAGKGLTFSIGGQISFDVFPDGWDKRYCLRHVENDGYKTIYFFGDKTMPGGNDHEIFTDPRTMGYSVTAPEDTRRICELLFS
Nonstructural protein 1, sequence (Q194T2 whole entry): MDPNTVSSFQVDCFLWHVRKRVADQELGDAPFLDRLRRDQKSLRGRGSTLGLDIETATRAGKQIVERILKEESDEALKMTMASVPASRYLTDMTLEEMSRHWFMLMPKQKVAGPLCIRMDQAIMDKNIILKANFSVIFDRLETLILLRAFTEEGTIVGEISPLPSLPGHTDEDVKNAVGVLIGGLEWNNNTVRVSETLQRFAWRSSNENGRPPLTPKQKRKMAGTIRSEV
Cytochrome P450 2D6, sequence (P10635 whole entry): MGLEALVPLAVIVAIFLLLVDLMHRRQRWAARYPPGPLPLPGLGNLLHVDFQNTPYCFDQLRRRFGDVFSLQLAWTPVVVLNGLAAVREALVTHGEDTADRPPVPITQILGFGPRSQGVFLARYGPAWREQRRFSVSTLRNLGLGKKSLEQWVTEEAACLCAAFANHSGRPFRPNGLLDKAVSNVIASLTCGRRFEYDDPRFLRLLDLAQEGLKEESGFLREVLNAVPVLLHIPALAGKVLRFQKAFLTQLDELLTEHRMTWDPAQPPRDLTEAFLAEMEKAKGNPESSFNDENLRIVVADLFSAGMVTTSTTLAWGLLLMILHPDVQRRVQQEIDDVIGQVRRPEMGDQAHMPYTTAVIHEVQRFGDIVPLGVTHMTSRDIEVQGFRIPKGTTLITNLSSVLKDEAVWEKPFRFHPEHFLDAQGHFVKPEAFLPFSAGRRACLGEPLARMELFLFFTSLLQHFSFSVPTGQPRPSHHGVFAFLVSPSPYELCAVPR
Beta-lactamase (Salmonella choleraesuis (strain SC-B67), UniProt Q5J463), sequence (Q5J463 whole entry): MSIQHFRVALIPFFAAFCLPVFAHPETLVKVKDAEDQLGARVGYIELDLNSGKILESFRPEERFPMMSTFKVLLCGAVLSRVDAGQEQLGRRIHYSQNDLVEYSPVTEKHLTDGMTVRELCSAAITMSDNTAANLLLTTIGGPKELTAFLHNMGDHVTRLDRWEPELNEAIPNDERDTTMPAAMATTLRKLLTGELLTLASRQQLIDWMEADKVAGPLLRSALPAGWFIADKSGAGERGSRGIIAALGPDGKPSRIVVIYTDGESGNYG
Exodeoxyribonuclease V, sequence (P04993 whole entry): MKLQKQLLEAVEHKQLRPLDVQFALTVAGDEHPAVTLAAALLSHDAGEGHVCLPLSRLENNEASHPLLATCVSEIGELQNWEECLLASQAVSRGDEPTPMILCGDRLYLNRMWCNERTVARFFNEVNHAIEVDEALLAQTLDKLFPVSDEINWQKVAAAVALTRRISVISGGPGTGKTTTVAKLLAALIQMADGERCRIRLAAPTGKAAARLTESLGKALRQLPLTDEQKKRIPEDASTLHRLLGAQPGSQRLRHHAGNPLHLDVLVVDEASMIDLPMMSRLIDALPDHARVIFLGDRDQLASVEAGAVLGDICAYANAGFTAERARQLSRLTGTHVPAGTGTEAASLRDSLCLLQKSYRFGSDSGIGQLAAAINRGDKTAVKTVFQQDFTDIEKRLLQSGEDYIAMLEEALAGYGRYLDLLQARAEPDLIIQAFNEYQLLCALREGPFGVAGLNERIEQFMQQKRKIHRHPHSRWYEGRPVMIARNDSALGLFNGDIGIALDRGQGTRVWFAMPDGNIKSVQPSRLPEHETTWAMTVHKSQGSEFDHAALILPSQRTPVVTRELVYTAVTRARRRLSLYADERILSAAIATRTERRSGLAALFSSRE
Exodeoxyribonuclease V, sequence (P07648 whole entry): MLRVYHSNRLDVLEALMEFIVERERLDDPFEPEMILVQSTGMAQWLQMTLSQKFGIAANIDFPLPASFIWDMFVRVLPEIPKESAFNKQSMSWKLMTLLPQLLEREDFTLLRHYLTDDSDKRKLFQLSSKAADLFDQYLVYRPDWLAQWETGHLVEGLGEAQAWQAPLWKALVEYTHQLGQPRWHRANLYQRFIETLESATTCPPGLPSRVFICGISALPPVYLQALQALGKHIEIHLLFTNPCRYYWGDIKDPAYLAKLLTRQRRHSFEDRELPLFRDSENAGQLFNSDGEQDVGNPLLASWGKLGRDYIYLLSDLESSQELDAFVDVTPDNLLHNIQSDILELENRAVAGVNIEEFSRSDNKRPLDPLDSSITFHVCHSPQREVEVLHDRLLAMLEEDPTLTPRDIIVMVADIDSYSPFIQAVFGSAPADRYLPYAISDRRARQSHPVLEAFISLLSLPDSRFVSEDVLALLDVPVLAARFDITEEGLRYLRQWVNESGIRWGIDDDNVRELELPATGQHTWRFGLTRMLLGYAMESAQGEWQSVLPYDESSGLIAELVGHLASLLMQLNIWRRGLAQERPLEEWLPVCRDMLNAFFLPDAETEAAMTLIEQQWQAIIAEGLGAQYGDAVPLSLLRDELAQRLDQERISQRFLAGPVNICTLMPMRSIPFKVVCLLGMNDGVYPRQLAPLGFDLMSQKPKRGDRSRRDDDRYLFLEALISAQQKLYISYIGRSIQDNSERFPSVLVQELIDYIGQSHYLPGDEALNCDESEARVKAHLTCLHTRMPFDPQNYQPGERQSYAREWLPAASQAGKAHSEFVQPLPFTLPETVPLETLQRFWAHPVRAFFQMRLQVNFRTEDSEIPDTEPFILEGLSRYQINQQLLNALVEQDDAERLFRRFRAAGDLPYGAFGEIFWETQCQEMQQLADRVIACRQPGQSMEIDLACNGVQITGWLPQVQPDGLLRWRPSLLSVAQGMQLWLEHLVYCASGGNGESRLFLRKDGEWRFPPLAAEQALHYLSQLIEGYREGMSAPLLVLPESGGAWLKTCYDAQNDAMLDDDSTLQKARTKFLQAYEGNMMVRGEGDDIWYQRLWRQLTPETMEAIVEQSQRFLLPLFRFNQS
Exodeoxyribonuclease V, sequence (P08394 whole entry): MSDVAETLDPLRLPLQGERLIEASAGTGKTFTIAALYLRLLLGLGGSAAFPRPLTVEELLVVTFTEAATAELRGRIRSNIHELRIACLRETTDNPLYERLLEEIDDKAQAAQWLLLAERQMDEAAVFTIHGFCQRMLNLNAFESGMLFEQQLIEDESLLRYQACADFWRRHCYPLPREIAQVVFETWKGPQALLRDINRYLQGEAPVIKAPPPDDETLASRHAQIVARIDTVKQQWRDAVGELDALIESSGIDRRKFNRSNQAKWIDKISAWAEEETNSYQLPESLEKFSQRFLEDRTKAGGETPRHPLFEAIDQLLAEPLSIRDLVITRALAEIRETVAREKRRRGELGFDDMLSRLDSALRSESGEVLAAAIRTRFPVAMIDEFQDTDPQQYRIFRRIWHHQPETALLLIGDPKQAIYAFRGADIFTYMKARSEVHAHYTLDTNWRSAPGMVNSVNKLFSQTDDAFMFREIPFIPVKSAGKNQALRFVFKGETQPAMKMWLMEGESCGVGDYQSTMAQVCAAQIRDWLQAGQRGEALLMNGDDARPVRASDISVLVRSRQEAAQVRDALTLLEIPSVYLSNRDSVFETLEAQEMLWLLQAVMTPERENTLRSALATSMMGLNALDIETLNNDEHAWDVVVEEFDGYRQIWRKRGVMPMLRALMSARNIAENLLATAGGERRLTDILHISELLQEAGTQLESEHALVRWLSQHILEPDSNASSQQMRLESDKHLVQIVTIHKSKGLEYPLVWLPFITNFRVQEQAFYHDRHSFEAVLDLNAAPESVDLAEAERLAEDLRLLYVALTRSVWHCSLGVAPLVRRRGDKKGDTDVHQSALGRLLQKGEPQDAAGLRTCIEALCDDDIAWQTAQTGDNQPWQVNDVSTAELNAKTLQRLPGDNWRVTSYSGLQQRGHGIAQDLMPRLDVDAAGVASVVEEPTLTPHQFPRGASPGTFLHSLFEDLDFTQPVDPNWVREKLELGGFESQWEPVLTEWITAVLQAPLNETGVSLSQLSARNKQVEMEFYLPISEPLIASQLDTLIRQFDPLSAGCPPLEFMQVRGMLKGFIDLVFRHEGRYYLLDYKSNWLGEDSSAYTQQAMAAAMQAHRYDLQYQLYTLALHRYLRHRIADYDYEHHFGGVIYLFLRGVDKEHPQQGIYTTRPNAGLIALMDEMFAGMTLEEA

N#Cc1ccc(NC(=O)Cn2sc3ccccc3c2=O)cc1
IC50 (Hexokinase): 6.97 µM (active)

Cc1ccc(OCC(=O)NNC(=O)CCC(=O)NCc2ccccc2)cc1
AC50 (Cytochrome P450 2C19): 0.00562 µM (inconclusive) | AC50 (Cytochrome P450 2D6): inconclusive

CCc1cc(C(c2cccc(OC)c2)N2CCOCC2)c(NC(=O)c2ccccc2)s1 (stereo not drawn)
EC50 [1]: 1.88 µM (active)

O=c1c2ccccc2sn1-c1cccc(S(=O)(=O)Nc2ccc(Cl)cc2)c1
IC50 (Phosphomannomutase 2): 9.44 µM (active) | IC50 [2]: 1.59 µM (active) | IC50 [3]: 8.2 µM (inactive)

CCCOc1ccccc1N=C(N)Nc1nc(C)cc(C)n1
IC50 [4]: 1.29 µM (active) | IC50 [5]: 2.56 µM (active)

COc1ccc(C(=O)Nc2cc(Cl)ccc2[N+](=O)[O-])cc1
IC50 (Hexokinase): > 25 µM (inactive)

O=C(NC(=S)NNC(=O)c1ccccc1O)c1cccs1
IC50 (Nonstructural protein 1): 10.6 µM (active) | IC50 (Exodeoxyribonuclease V): 79.9 µM (inactive) | IC50 [6]: > 122 µM (inactive) | IC50 [7]: 66.1 µM (inactive)

CN(C)c1ccc(-n2sc3ccccc3c2=O)cc1
IC50 (Phosphomannomutase 2): > 100 µM (inactive) | IC50 [2]: 21.4 µM (active) | IC50 [3]: 11.4 µM (inactive)

COc1cc(-c2nnc3sc(-c4cccs4)nn23)cc(OC)c1OC
IC50 [4]: 1.64 µM (active) | IC50 [5]: 13.9 µM (inactive)

COCCCNc1c(O)nc2cccc3c2c1-c1ccccc1C3=O
EC50 (Insulin-degrading enzyme [8]): > 54.7 µM (inactive) | EC50 (Insulin-degrading enzyme [9]): > 54.7 µM (inactive) | IC50 (Beta-lactamase [10]): 2.11 µM (active) | EC50 (HEK293 [11]): > 54.7 µM (inactive) | AC50 (HeLa): 66.1 µM (active) | AC50 (ORF 73): 0.526 µM (active) | IC50 (Beta-lactamase [12]): 0.89 µM (active) | IC50 (HEK293 [13]): > 89.2 µM (inactive) | AC50 [14]: 1.57 µM (active)

CCCCN1C(=O)NC(=O)/C(=C(O)\C=C\c2c[nH]c3ccccc23)C1=O
IC50 [15]: 3.1 µM (active) | EC50 [16]: 6.02 µM (active)

Cc1onc(-c2ccccc2)c1C(=O)NNC(=S)NC(=O)/C=C/c1ccccc1
EC50 [17]: 4.22 µM (active) | EC50 [16]: 3.32 µM (active) | EC50 [1]: 5.31 µM (active)
